In patent US20260250325A1, “Antiviral Polypeptide Membrane Fusion Inhibitor, and Preparation Method and Application Thereof” (priority 2025, published 2026):
Where a SMILES comes first, the peptide text is derived from it. The star is where a group is joined. Succinyl(4-O-cholesteryl) = CC(C)CCC[C@@H](C)[C@H]1CC[C@H]2[C@@H]3CC=C4C[C@@H](OC(=O)CCC(=O)*)CC[C@]4(C)[C@H]3CC[C@]12C

Experiments:
RSV A2 virus strain = assay: Cotton rat RSV A2 challenge protection, lung nucleic acid load by RT-qPCR; type: in vivo; settings: cotton rats; for Nucleic acid load RT-qPCR detection results Log10 mean (copy number/gram of lung tissue): tracheal nebulization 1 mg/kg QD for 5 days, lung collected 2 h after final administration on Day 4; for effect on viral titer in lung tissue (in words): tracheal nebulization once daily for 5 days
Text: Female cotton rats were from Shanghai Yishang Biotechnology Co., Ltd. The RSV A2 virus strain was from the ATCC, with a catalog number VR-1540. RT-qPCR primer+probe primer were supplied by Qingke Biotechnology Co., Ltd, with batch number TSP20241227-025-00187. The RT-qPCR standard was provided by Vazyme, with batch number 20241008.
Female cotton rats (6-8 weeks old) were grouped based on body weight (n=5). All animals were intranasally challenged with RSV on Day 0 at a challenge dosage of […] pfu (50 μL) per animal. Administration began 1 h after Day 0 challenge; the polypeptide sample, positive control, and solvent control were administered via tracheal nebulization once daily for 5 consecutive days. Lung tissue was collected from all animals 2 h after the final administration on Day 4. Left lung tissue (including partial trachea) was rapidly frozen in a virus protection solution with a 10-fold volume and stored below −70° C.; and the viral titer was detected with RT-qPCR.
First, sample homogenization and lung tissue RNA extraction were performed, and the supernatant was taken from the tissue sample that was homogenized using a tissue homogenizer (maintaining a low-temperature environment). The approximately 100 μL of the homogenate supernatant was taken, and total tissue RNA was extracted by using a VeZol reagent-chloroform-water phase-magnetic bead method, and dissolved in RNase-free water. The RT-qPCR reaction system was prepared as follows: a one-step RT-qPCR reaction system was prepared by using an RNA template, a probe, a primer pair, an RT-qPCR buffer, and the RNase-free water; each sample was tested in duplicated wells, with each well containing 20 μL of the one-step RT-qPCR reaction system; a quantitative standard curve well (RSV A2 N gene full-length plasmid), a positive quality control well, and a negative quality control well were arranged at the same time. Then, amplification programs were set according to reverse transcription, pre-denaturation, and cyclic amplification, and amplification data was collected by using a real-time fluorescence quantification PCR instrument, and a mean CT value for duplicated wells was calculated. The CT value from the test results for each sample was substituted into a quantitative standard curve to calculate a copy number. A calculation formula for RSV viral load (copy number/gram of lung tissue) was: sample viral load (copy number/gram of lung tissue)=copy number/relative tissue input (g).
One hour after RSV A2 challenge in cotton rats, compounds 13, 14, 17, 19, 20, 21, 26, 27, 28, and 40 were administered via tracheal nebulization once daily for 5 consecutive days; and 2 h after the final administration, lung tissue was collected from all groups for viral titer detection, and results were shown in Table 4.

RSV A long virus strain = type: cell-based; settings: RSV A long virus strain, HEp-2 cells, plaque reduction, 1 day; read-out: IC50
Summary of the method: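 Plaque reduction in HEp-2 cells: virus (100 PFU/well) and serially diluted compound (8 concentrations) mixed 1 h, adsorbed 2 h, then overlaid with 0.8% CMC medium plus compound for 1 day at 37 °C. Spots counted after anti-RSV immunostaining; IC50 from normalized inhibition, CC50 from viability data.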

| Molecule | Nucleic acid load RT-qPCR detection results Log10 mean (copy number/gram of lung tissue) (RSV A2 virus strain) | effect on viral titer in lung tissue (in words) (RSV A2 virus strain) | IC50 (RSV A long virus strain) [nM] |
| --- | --- | --- | --- |
| Ac-FDEEISQVNEKINQSLAFIRKSDELLHNVNAGKSTTEAAAKK(Succinyl(4-O-cholesteryl))-NH2 [Compound 26] | 7.78 Log10 copy number/gram of lung | significantly reduce the viral titer in lung tissue | 12.8 |
| CC[C@H](C)[C@H](NC(=O)[C@H](CO)NC(=O)[C@H](C)NC(=O)[C@H](CC(=O)O)NC(=O)[C@H](Cc1ccccc1)NC(=O)[C@H](CCC(=O)O)NC(=O)[C@H](CC(=O)O)NC(C)=O)C(=O)N[C@@H](CO)C(=O)N[C@@H](CCC(N)=O)C(=O)N[C@H](C(=O)N[C@@H](CC(N)=O)C(=O)N[C@@H](CCC(=O)O)C(=O)N[C@@H](CCCCN)C(=O)N[C@H](C(=O)N[C@@H](CC(N)=O)C(=O)N[C@@H](CCC(N)=O)C(=O)N[C@@H](CO)C(=O)N[C@@H](CC(C)C)C(=O)N[C@@H](CCC(=O)O)C(=O)N[C@@H](CCC(=O)O)C(=O)N[C@H](C(=O)N[C@@H](CCCNC(=N)N)C(=O)N[C@@H](CCCCN)C(=O)N[C@@H](CO)C(=O)N[C@@H](CC(=O)O)C(=O)N[C@@H](CCC(=O)O)C(=O)N[C@@H](CC(C)C)C(=O)N[C@@H](CC(C)C)C(=O)N[C@@H](Cc1c[nH]cn1)C(=O)N[C@@H](CC(N)=O)C(=O)N[C@@H](CCC(=O)O)C(=O)N[C@@H](C)C(=O)N[C@@H](C)C(=O)N[C@@H](C)C(=O)N[C@@H](CCCCN)C(=O)N[C@@H](CCCCNC(=O)CCC(=O)O[C@H]1CC[C@@]2(C)C(=CC[C@H]3[C@@H]4CC[C@H]([C@H](C)CCCC(C)C)[C@@]4(C)CC[C@@H]32)C1)C(N)=O)[C@@H](C)CC)[C@@H](C)CC)C(C)C [Compound 28] (Ac-DEFDASISQVNEKINQSLEEIRKSDELLHNEAAAKK(Succinyl(4-O-cholesteryl))-NH2) | 7.76 Log10 copy number/gram of lung | significantly reduce the viral titer in lung tissue | 12.4 |
| CC[C@H](C)[C@H](NC(=O)[C@H](CCCCN)NC(=O)[C@H](CCCCN)NC(=O)[C@H](CC(C)C)NC(=O)[C@H](CO)NC(=O)[C@H](CCC(=O)O)NC(=O)[C@H](CCC(=O)O)NC(=O)[C@@H](NC(=O)[C@H](CCCCN)NC(=O)[C@H](CCCCN)NC(=O)[C@H](CC(N)=O)NC(=O)[C@@H](NC(=O)[C@H](CCC(=O)O)NC(=O)[C@H](CCC(=O)O)NC(=O)[C@@H](NC(=O)[C@H](CCCCN)NC(=O)[C@H](CCCCN)NC(=O)[C@H](CC(=O)O)NC(=O)[C@H](Cc1ccccc1)NC(=O)[C@H](CCC(=O)O)NC(=O)[C@H](CC(=O)O)NC(=O)[C@H](Cc1c[nH]c2ccccc12)NC(C)=O)[C@@H](C)CC)C(C)C)[C@@H](C)CC)C(=O)N[C@@H](CCC(=O)O)C(=O)N[C@@H](CCC(=O)O)C(=O)N[C@@H](CO)C(=O)N[C@@H](CC(=O)O)C(=O)N[C@@H](CCCCN)C(=O)N[C@@H](CCCCN)C(=O)N[C@@H](CC(C)C)C(=O)N[C@@H](CCC(=O)O)C(=O)N[C@@H](CCC(=O)O)C(=O)N[C@H](C(=O)N[C@@H](CC(N)=O)C(=O)N[C@@H](C)C(=O)N[C@@H](CCC(=O)O)C(=O)N[C@@H](C)C(=O)N[C@@H](C)C(=O)N[C@@H](C)C(=O)N[C@@H](CCCCN)C(=O)N[C@@H](CCCCNC(=O)CCC(=O)O[C@H]1CC[C@@]2(C)C(=CC[C@H]3[C@@H]4CC[C@H]([C@H](C)CCCC(C)C)[C@@]4(C)CC[C@@H]32)C1)C(N)=O)C(C)C [Compound 40] (Ac-WDEFDKKIEEVNKKIEESLKKIEESDKKLEEVNAEAAAKK(Succinyl(4-O-cholesteryl))-NH2) | 7.71 Log10 copy number/gram of lung | significantly reduce the viral titer in lung tissue | 11.7 |
| Ac-WDEFDASISQVNEKINQSLEEIRKSDELLHNVNAGLGSGSGK(Succinyl(4-O-cholesteryl))-NH2 [Compound 27] | 8.86 Log10 copy number/gram of lung | significantly reduce the viral titer in lung tissue | 25.7 |
| CC[C@H](C)[C@H](NC(=O)[C@H](CO)NC(=O)[C@H](C)NC(=O)[C@H](CC(=O)O)NC(=O)[C@H](Cc1ccccc1)NC(C)=O)C(=O)N[C@@H](CCC(=O)O)C(=O)N[C@@H](CCC(=O)O)C(=O)N[C@H](C(=O)N[C@@H](CC(N)=O)C(=O)N[C@@H](CCCNC(=N)N)C(=O)N[C@@H](CCCNC(=N)N)C(=O)N[C@H](C(=O)N[C@@H](CCC(=O)O)C(=O)N[C@@H](CCC(=O)O)C(=O)N[C@@H](CO)C(=O)N[C@@H](CC(C)C)C(=O)N[C@@H](CCCNC(=N)N)C(=O)N[C@@H](CCCNC(=N)N)C(=O)N[C@H](C(=O)N[C@@H](CCC(=O)O)C(=O)N[C@@H](CCC(=O)O)C(=O)N[C@@H](CO)C(=O)N[C@@H](CC(=O)O)C(=O)N[C@@H](CCCNC(=N)N)C(=O)N[C@@H](CCCNC(=N)N)C(=O)N[C@@H](CC(C)C)C(=O)N[C@@H](CCC(=O)O)C(=O)N[C@@H](CCC(=O)O)C(=O)N[C@H](C(=O)N[C@@H](CC(N)=O)C(=O)N[C@@H](C)C(=O)N[C@@H](CCC(=O)O)C(=O)N[C@@H](C)C(=O)N[C@@H](C)C(=O)N[C@@H](C)C(=O)N[C@@H](CCCCN)C(=O)N[C@@H](CCCCNC(=O)CCC(=O)O[C@H]1CC[C@@]2(C)C(=CC[C@H]3[C@@H]4CC[C@H]([C@H](C)CCCC(C)C)[C@@]4(C)CC[C@@H]32)C1)C(N)=O)C(C)C)[C@@H](C)CC)[C@@H](C)CC)C(C)C [Compound 42] (Ac-FDASIEEVNRRIEESLRRIEESDRRLEEVNAEAAAKK(Succinyl(4-O-cholesteryl))-NH2) |  |  | 11.8 |
| Ac-WDEFDASISQVNEKINQSLEEIRKSDELLHNVNALEAAAKK(Succinyl(4-O-cholesteryl))-NH2 [Compound 38] |  |  | 14.6 |
| CC[C@H](C)[C@H](NC(=O)[C@H](CO)NC(=O)[C@H](C)NC(=O)[C@H](CC(=O)O)NC(=O)[C@H](Cc1ccccc1)NC(=O)[C@H](CCC(=O)O)NC(=O)[C@H](CC(=O)O)NC(=O)[C@H](Cc1c[nH]c2ccccc12)NC(C)=O)C(=O)N[C@@H](CCC(=O)O)C(=O)N[C@@H](CCC(=O)O)C(=O)N[C@H](C(=O)N[C@@H](CC(N)=O)C(=O)N[C@@H](CCCNC(=N)N)C(=O)N[C@@H](CCCNC(=N)N)C(=O)N[C@H](C(=O)N[C@@H](CCC(=O)O)C(=O)N[C@@H](CCC(=O)O)C(=O)N[C@@H](CO)C(=O)N[C@@H](CC(C)C)C(=O)N[C@@H](CCCNC(=N)N)C(=O)N[C@@H](CCCNC(=N)N)C(=O)N[C@H](C(=O)N[C@@H](CCC(=O)O)C(=O)N[C@@H](CCC(=O)O)C(=O)N[C@@H](CO)C(=O)N[C@@H](CC(=O)O)C(=O)N[C@@H](CCCNC(=N)N)C(=O)N[C@@H](CCCNC(=N)N)C(=O)N[C@@H](CC(C)C)C(=O)N[C@@H](CCC(=O)O)C(=O)N[C@@H](CCC(=O)O)C(=O)N[C@H](C(=O)N[C@@H](CCC(=O)O)C(=O)N[C@@H](C)C(=O)N[C@@H](C)C(=O)N[C@@H](C)C(=O)N[C@@H](CCCCN)C(=O)N[C@@H](CCCCNC(=O)CCC(=O)O[C@H]1CC[C@@]2(C)C(=CC[C@H]3[C@@H]4CC[C@H]([C@H](C)CCCC(C)C)[C@@]4(C)CC[C@@H]32)C1)C(N)=O)C(C)C)[C@@H](C)CC)[C@@H](C)CC)C(C)C [Compound 43] (Ac-WDEFDASIEEVNRRIEESLRRIEESDRRLEEVEAAAKK(Succinyl(4-O-cholesteryl))-NH2) |  |  | 18.3 |
